Results on 17 compounds are retold here after ChEMBL document CHEMBL1136191, “Cyclin-dependent kinase 4 inhibitors as a treatment for cancer. Part 1: identification and optimisation of substituted 4,6-bis anilino pyrimidines” (Bioorg Med Chem Lett, 2003).

Assay [1] addresses Cyclin-dependent kinase 4 (Homo sapiens, UniProt P11802). The assay can be described thus: In vitro inhibition of Cyclin-dependent kinase 4 was determined.
The target in assay [2] is Cyclin-dependent kinase 2 (Homo sapiens, UniProt P24941). The assay can be described thus: In vitro inhibition of Cyclin-dependent kinase 2 was determined.

pIC50: −log10 of the molar value. Some results are limits rather than exact numbers.

Sequence of Cyclin-dependent kinase 4 (P11802 whole entry): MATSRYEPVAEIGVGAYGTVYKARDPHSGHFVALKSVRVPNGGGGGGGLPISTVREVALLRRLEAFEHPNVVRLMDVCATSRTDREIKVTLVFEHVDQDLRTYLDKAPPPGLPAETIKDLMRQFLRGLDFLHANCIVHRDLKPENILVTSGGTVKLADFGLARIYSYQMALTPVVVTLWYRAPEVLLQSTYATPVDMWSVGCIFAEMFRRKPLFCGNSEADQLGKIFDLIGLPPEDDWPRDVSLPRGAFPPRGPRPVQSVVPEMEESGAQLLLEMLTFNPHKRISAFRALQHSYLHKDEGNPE

Consider `CN(C)CC(O)COc1ccc(Nc2cc(Nc3c(F)cccc3F)ncn2)cc1` (configuration not stated), for which the negative-log IC50 (pIC50) in assay [1] is 5.05.

On to `CN(C)CC(O)COc1ccc(Nc2cc(N(CCC#N)c3cc(Cl)ccc3Cl)ncn2)cc1` (configuration not stated), for which the negative logarithm of the IC50 (pIC50) in assay [1] is 6.30; in assay [2], 5.30.

Regarding `CN(C)CC(O)COc1ccc(Nc2cc(N(Cc3ccccc3)c3cc(Cl)ccc3Cl)ncn2)cc1` (configuration not stated), the negative-log IC50 (pIC50) in assay [1] is 5.30; in assay [2], less than 4.00.

With `CN(C)CC(O)COc1ccc(Nc2cc(Nc3ccccc3Br)ncn2)cc1` (configuration not stated), the results for the pIC50 in assay [1] and in assay [2] were 5.40 and 4.55, respectively.

Take `Cc1ccc(N(CC#N)c2cc(Nc3ccc(OCC(O)CN(C)C)cc3)ncn2)c(Br)c1` (configuration not stated): the values for the pIC50 in assay [1] and in assay [2] were 7.00 and 5.52, respectively.

As for `C#CCN(c1cc(Nc2ccc(OCC(O)CN(C)C)cc2)ncn1)c1cc(Cl)ccc1Cl` (configuration not stated), the pIC50 in assay [1] was 6.10; in assay [2], 4.72.

For `CN(C)CC(O)COc1ccc(Nc2cc(Nc3ccccc3Cl)ncn2)cc1` (configuration not stated), the pIC50 in assay [1] is 5.10; in assay [2], 4.02.

For the compound `CN(C)CC(O)COc1ccc(Nc2cc(Nc3ccc(F)cc3F)ncn2)cc1` (configuration not stated), the values for the pIC50 in assay [1] and in assay [2] were 4.82 and 4.03, respectively.

As to `CN(C)CC(O)COc1ccc(Nc2cc(Nc3ccccc3[N+](=O)[O-])ncn2)cc1` (configuration not stated), the values for the pIC50 in assay [1] and in assay [2] were 5.70 and 4.60, respectively.

Turning to `CN(C)CC(O)COc1ccc(Nc2cc(N(CC#N)c3cc(Cl)ccc3Cl)ncn2)cc1` (configuration not stated), the negative-log IC50 (pIC50) in assay [1] was 7.30; in assay [2] it was 6.00.

For the compound `CC(C)c1ccccc1Nc1cc(Nc2ccc(OCC(O)CN(C)C)cc2)ncn1` (configuration not stated), the negative logarithm of the IC50 (pIC50) in assay [1] is 4.74; in assay [2], 4.62.

`Cc1ccccc1Nc1cc(Nc2ccc(OCC(O)CN(C)C)cc2)ncn1` (configuration not stated): the negative logarithm of the IC50 (pIC50) in assay [1] was 5.10; in assay [2], 4.41.

In assay [1], `CN(C)CC(O)COc1ccc(Nc2cc(Nc3cc(C(F)(F)F)ccc3F)ncn2)cc1` (configuration not stated) gave a pIC50 of 5.22.

In the case of `CN(C)CC(O)COc1ccc(Nc2cc(Nc3cc(Cl)ccc3Cl)ncn2)cc1` (configuration not stated), the results for the pIC50 in assay [1] and in assay [2] were 6.00 and 4.66, respectively.

`CN(C)CC(O)COc1ccc(Nc2cc(Nc3ccccc3F)ncn2)cc1` (configuration not stated): the negative logarithm of the IC50 (pIC50) was 4.57 in assay [1] and less than 4.00 in assay [2].

Take `CN(C)CC(O)COc1ccc(Nc2cc(Nc3ccccc3)ncn2)cc1` (configuration not stated): the figures for the negative logarithm of the IC50 (pIC50) in assay [1] and in assay [2] were 4.48 and less than 4.00, respectively.

As to `COc1ccccc1Nc1cc(Nc2ccc(OCC(O)CN(C)C)cc2)ncn1` (configuration not stated), the values for the negative-log IC50 (pIC50) in assay [1] and in assay [2] were 4.64 and 4.07, respectively.

As usually defined, the pIC50 is the IC50 on a negative log10 scale, so that one unit is a factor of ten. The low end stands for a large IC50, the high end for a small IC50.
